Patent publication US6462016B1 (Shiseido Company, Ltd., priority 1995, dated 2002)

What was measured:
[1] = target: T1, maxadilan receptor in crude membrane fraction from the mouse brain (Mus musculus, UniProt P70205); experiment: Binding test (tissue): 125I-Max, mouse brain crude membrane fraction
T1 construct: Likewise, crude membrane fractions were prepared; from tissue; host or cells: mouse brain, crude membrane fraction
T1 sequence (P70205 21-496): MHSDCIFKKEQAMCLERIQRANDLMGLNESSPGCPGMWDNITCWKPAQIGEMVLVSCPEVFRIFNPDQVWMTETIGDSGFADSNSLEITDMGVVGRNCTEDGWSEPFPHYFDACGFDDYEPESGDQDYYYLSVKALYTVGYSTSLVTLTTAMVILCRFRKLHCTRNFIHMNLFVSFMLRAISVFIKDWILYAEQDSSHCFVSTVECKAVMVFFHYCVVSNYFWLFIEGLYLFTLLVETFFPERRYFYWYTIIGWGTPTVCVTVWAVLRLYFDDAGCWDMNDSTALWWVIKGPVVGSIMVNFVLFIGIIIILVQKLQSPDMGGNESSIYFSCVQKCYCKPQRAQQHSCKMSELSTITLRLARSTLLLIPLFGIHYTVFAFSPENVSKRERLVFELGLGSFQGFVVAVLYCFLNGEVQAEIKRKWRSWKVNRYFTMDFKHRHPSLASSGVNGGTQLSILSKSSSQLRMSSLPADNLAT
Description: (§1) Likewise, crude membrane fractions were prepared, respectively, from the brain, liver, pancreas, spleen, aorta and kidney of a rabbit, and the brains of a rat, a mouse, cattle and a human being.
(§2) After completion of the reaction, ^125I-Max bound to the membrane was separated by subjecting the resultant incubation matter to suction filtration using a GF/C glass filter (Whatman GF/C), and the radioactivity of the glass filter after being dried was measured by a γ-counter.

[2] = test system: rat pancreas smooth muscle MILE cell; experiment: cAMP production in MILE cell; format: cell-based
[3] = target: maxadilan receptor in crude membrane fraction from the rabbit spleen; experiment: Binding test (tissue): 125I-Max, rabbit spleen crude membrane fraction; settings: read-out: dissociation constant (Kd)
Description: as §1, §2

[4] = test system: NBf1 cell; experiment: cAMP production in NBf1 cell; format: cell-based, human
[5] = test system: rat adrenal medulla melanocytoma PC-12; format: cell-based
[6] = target: T2, maxadilan receptor in crude membrane fraction from the cattle brain (Bos taurus, UniProt Q29627); experiment: Binding test (tissue): 125I-Max, cattle brain crude membrane fraction
T2 construct: Likewise, crude membrane fractions were prepared; from tissue; host or cells: cattle brain, crude membrane fraction
T2 sequence (Q29627 38-513): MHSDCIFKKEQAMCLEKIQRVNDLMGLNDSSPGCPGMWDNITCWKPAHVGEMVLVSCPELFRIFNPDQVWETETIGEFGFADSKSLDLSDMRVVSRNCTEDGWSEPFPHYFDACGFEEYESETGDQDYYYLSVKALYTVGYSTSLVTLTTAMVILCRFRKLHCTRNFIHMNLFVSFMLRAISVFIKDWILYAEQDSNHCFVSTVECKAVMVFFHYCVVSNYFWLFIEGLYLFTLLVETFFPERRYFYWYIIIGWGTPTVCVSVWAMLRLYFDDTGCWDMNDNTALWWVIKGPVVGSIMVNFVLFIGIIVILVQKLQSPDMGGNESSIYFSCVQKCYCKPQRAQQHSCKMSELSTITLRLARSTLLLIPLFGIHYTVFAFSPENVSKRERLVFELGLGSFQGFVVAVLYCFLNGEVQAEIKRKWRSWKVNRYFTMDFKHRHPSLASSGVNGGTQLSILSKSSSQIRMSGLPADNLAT
Description: as §1, §2

[7] = target: T3, maxadilan receptor in crude membrane fraction from the brain of a human being (Homo sapiens, UniProt P41586); experiment: Binding test (tissue): 125I-Max, human brain crude membrane fraction
T3 construct: Likewise, crude membrane fractions were prepared; from tissue; host or cells: human brain, crude membrane fraction
T3 sequence (P41586 21-468): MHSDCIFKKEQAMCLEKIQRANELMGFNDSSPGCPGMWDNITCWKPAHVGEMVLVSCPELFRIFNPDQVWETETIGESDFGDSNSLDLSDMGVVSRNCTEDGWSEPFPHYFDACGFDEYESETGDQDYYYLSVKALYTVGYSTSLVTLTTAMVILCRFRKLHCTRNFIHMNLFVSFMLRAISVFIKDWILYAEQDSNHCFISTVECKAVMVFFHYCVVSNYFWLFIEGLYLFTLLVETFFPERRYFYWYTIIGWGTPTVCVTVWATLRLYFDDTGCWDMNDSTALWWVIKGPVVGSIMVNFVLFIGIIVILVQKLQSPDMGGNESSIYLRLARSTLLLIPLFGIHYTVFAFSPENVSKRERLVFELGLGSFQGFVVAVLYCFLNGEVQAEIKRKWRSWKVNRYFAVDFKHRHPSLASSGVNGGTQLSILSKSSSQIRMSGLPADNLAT
Description: as §1, §2

[8] = test system: rabbit skin; format: in vivo
[9] = target: T4, maxadilan receptor in crude membrane fraction from the rat brain (Rattus norvegicus, UniProt P32215); experiment: Binding test (tissue): 125I-Max, rat brain crude membrane fraction
T4 construct: Likewise, crude membrane fractions were prepared; from tissue; host or cells: rat brain, crude membrane fraction
T4 sequence (P32215 20-523): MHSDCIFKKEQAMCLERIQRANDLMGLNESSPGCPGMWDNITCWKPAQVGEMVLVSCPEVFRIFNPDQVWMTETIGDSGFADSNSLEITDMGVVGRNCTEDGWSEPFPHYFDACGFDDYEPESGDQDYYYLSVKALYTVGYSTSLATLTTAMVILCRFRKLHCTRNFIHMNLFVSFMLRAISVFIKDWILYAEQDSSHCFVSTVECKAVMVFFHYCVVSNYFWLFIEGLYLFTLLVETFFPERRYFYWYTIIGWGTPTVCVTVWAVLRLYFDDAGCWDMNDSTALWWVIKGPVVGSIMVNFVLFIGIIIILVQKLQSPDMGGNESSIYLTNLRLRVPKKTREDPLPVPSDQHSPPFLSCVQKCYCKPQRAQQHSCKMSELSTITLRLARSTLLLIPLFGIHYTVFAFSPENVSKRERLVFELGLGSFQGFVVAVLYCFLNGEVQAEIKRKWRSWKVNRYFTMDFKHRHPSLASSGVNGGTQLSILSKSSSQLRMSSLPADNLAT
Description: as §1, §2

maxadilan
maximum binding amount (Bmax) [1]: 53 fmol/mg | cAMP production [2]: likewise observed | Kd [3]: 0.055 nM | cAMP production [4]: likewise observed | cAMP production ([5]; PC-12 cell (1×10^6), 37° C. 10 minutes): significantly promotes cAMP production | time course of cAMP production after stimulation ([5]; PC-12 cell, 100 nM maxadilan, 37° C., various time): conducted in an instant | maximum binding amount (Bmax) [6]: 17 fmol/mg | specific binding to crude membrane fraction [6]: specific binding of Max is also recognized | specific binding to crude membrane fraction [7]: specific binding of Max is also recognized | Erythema formation activity ([8]; 50 μl dilutions at various concentrations intracutaneously into white rabbits, observed 30 minutes and 2 hours after injection): 10^−12 | erythema formation action (in words) ([8]; intracutaneous injection, rabbit): superior to that of natural maxadilan | maximum binding amount (Bmax) [9]: 68 fmol/mg
